Reference: the supplement of paper PMC12463676, “Small-molecule dissolution of stress granules by redox modulation benefits ALS models” (Nature Chemical Biology, 2025)

Experiments:
potassium arsenate = compound: O=[As]([O-])(O)O.[K+] [potassium arsenate]; test: thermal stability z-score vs DMSO; higher = more thermally stabilized by treatment; settings: HeLa; arsenate concentration 1 mM
Experimental: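 Cellular thermal proteome profiling in HeLa cells treated with 1 mM arsenate for 1 h (DMSO pretreatment), heated to ten temperatures (37-66.3 °C). Soluble protein was quantified by TMT mass spectrometry relative to DMSO controls; the thermal stability score was transformed to a z-score; mean of n = 3 experiments.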

lipoamide = compound: NC(=O)CCCCC1CCSS1 [lipoamide]; test: as above; settings: HeLa, lipoamide concentration 100 µM
Experimental: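 Cellular thermal proteome profiling in HeLa cells. Cells were treated with 100 µM lipoamide for 1 h, with or without 1 mM arsenate for a further 1 h, then heated to ten temperatures (37-66.3 °C), and soluble protein was quantified by TMT mass spectrometry relative to 0.1% DMSO controls. The thermal stability score (sum of log2 fold changes minus the abundance score) was transformed to a z-score; mean of n = 3 experiments.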

[1] = arsenate co-treatment: 1 mM arsenate 1 h
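Also: each temperature applied for 3 min, abundance score taken as mean log2 fold change at the two lowest temperatures, z-score obtained by mean subtraction and division by SD.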

Sequence of UniProt Q3ZCW2 (Q3ZCW2 whole entry): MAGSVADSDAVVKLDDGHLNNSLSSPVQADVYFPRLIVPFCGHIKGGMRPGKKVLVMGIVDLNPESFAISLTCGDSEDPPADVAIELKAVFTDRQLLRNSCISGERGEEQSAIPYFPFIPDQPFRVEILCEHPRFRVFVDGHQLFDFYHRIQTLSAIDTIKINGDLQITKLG
Sequence of UniProt Q08380 (Q08380 whole entry): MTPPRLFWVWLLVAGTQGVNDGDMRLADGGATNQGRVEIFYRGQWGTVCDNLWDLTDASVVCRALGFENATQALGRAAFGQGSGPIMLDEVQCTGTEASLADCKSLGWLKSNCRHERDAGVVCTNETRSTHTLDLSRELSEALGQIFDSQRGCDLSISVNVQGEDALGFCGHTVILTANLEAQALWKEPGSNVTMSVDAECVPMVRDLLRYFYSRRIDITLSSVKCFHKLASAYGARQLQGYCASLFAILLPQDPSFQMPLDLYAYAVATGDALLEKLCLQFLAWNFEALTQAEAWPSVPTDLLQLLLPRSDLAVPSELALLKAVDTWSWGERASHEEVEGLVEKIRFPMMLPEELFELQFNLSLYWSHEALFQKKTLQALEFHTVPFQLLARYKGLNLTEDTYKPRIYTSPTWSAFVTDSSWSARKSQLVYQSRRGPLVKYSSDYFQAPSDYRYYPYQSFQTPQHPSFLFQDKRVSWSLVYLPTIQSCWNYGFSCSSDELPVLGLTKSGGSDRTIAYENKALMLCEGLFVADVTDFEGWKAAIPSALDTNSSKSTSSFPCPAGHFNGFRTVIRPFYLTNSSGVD
Sequence of UniProt P02545 (P02545 whole entry): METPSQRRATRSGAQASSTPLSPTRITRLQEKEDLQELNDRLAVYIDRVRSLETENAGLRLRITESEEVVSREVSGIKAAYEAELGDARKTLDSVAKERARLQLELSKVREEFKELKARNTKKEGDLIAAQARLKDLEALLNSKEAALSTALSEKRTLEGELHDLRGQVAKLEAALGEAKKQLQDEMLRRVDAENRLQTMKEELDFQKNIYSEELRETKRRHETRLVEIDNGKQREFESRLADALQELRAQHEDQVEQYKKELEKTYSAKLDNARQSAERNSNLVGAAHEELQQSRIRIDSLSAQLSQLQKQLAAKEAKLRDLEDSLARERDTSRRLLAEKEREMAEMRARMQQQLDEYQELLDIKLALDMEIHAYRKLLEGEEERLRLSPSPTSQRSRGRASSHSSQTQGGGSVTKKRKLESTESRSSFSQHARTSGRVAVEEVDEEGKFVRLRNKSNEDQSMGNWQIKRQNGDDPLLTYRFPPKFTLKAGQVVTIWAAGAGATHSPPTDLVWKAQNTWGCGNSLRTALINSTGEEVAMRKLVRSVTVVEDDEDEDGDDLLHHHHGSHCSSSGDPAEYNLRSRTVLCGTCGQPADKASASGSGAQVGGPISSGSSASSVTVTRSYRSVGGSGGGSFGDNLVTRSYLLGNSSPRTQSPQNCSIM
Sequence of UniProt P11047 (P11047 whole entry): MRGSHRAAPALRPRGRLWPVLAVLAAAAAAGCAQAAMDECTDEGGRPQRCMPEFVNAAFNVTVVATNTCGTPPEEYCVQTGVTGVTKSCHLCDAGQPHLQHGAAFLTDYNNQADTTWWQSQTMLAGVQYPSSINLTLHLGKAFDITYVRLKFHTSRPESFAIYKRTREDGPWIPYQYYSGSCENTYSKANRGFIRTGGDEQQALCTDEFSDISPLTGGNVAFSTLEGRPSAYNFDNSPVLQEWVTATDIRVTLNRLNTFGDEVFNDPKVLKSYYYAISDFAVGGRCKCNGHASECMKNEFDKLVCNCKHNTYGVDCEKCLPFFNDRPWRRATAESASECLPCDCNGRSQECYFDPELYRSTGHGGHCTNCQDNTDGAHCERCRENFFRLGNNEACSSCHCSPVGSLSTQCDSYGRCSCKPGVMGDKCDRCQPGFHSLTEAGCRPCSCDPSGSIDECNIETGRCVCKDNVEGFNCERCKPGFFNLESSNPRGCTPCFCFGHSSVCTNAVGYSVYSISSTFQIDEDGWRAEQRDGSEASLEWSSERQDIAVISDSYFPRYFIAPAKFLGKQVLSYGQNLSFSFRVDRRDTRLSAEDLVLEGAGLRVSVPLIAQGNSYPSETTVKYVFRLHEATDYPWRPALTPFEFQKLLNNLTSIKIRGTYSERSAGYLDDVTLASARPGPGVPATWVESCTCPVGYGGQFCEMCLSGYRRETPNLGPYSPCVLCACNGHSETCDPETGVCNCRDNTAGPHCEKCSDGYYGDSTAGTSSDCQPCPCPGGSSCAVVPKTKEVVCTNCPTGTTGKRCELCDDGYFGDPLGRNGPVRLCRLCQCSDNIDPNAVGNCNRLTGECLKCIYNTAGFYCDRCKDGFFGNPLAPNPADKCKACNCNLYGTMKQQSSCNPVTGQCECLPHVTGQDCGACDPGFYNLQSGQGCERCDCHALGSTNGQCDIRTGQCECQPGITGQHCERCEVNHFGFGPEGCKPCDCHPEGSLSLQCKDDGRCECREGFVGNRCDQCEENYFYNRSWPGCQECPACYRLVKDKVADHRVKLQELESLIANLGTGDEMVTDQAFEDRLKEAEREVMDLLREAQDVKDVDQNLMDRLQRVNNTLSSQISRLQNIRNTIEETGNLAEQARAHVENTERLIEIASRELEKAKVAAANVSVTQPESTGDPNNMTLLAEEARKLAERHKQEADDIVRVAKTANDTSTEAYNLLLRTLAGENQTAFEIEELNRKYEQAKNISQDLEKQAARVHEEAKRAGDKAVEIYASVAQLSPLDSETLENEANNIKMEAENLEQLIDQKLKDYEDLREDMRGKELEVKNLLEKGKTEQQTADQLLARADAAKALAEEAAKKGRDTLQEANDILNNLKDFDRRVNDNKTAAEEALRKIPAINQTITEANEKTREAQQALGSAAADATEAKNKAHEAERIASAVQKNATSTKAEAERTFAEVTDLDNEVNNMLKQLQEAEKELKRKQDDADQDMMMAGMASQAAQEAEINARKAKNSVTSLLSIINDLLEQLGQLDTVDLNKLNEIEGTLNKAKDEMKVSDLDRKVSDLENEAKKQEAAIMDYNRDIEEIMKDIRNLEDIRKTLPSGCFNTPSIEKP
Sequence of UniProt P09382 (P09382 whole entry): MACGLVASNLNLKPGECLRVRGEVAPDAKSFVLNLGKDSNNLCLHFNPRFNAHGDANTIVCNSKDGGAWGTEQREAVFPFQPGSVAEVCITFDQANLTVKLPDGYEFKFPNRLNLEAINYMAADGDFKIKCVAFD
Sequence of UniProt Q92615 (Q92615 whole entry): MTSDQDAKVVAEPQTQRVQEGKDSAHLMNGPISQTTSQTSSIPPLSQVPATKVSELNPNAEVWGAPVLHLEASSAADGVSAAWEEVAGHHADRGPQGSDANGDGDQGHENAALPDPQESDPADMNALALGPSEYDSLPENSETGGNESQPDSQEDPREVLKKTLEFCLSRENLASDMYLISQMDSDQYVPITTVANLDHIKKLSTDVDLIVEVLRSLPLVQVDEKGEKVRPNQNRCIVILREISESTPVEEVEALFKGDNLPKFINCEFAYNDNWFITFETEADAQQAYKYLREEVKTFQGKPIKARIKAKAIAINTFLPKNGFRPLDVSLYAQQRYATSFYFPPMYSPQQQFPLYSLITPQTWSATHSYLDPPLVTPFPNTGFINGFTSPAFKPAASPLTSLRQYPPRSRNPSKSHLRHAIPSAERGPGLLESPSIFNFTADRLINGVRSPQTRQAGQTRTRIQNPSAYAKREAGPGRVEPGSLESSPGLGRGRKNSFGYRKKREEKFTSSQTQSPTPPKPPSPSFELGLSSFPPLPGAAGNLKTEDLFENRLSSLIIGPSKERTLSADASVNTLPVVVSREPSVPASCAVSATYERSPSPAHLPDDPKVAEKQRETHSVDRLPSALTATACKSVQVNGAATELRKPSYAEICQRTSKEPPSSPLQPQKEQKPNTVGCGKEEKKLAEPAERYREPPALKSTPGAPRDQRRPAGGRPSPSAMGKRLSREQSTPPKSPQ
Sequence of UniProt O95835 (O95835 whole entry): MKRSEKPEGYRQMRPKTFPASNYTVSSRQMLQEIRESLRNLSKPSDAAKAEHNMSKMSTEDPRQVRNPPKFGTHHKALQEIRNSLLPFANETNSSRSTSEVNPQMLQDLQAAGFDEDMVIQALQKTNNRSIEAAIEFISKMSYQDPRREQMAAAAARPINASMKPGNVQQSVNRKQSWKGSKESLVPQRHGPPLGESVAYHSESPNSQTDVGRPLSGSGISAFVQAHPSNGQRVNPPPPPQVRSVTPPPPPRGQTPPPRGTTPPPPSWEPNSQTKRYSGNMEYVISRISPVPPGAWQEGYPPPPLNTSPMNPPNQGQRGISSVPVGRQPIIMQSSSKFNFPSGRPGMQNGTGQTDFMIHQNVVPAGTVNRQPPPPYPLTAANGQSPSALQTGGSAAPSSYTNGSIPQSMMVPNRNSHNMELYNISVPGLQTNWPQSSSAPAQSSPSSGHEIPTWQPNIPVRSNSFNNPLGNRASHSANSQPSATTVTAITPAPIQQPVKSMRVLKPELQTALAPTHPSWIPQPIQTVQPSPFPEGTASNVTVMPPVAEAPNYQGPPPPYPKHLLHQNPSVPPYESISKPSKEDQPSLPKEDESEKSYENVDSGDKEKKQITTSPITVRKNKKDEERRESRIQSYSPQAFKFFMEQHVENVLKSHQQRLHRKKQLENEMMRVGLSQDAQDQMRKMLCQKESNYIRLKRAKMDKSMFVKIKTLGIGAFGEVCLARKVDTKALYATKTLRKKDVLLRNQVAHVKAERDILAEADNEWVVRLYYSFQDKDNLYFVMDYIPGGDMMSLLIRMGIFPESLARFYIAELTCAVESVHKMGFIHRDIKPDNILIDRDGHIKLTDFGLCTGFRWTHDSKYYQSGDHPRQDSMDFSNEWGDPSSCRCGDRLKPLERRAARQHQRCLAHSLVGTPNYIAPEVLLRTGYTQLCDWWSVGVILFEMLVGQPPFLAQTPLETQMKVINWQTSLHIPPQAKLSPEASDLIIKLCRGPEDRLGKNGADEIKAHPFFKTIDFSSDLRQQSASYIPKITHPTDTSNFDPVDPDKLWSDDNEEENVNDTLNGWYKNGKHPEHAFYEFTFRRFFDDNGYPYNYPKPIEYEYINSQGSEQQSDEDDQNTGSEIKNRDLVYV

| Target | thermal stability z-score (potassium arsenate) | thermal stability z-score (lipoamide; [1]) | thermal stability z-score (lipoamide; arsenate co-treatment: none) |
| --- | --- | --- | --- |
| LAMA5 (UniProt O15230) | 0.045 | -1.26 | -0.93 |
| LAMB1 (UniProt P07942) | 0.724 | -3.22 | -2.66 |
| LAMB2 (UniProt P55268) | -0.248 | -1.69 | -1.75 |
| LAMB3 (UniProt Q13751) | 0.108 | -1.92 | -1.59 |
| LAMC1 (UniProt P11047) | 1.15 | -2.97 | -2.6 |
| LAMP1 (UniProt P11279) | -0.0209 | 0.396 | 0.531 |
| LAMP2 (UniProt P13473) | 0.0434 | -0.0628 | -0.138 |
| LAMTOR1 (UniProt Q6IAA8) | 0.827 | 1.14 | 0.655 |
| LAMTOR2 (UniProt Q9Y2Q5) | 0.135 | 0.266 | 0.19 |
| LAMTOR3 (UniProt Q9UHA4) | -0.713 | 1.21 | 0.41 |
| LAMTOR5 (UniProt O43504) | 0.0111 | -0.306 | -0.405 |
| LANCL1 (UniProt O43813) | 0.0783 | 0.232 | 0.164 |
| LANCL2 (UniProt Q9NS86) | -0.393 | -1.13 | -0.454 |
| LAP3 (UniProt P28838) | 1.29 | 0.405 | 0.407 |
| LARP1 (UniProt Q6PKG0) | 1.03 | 0.375 | 0.88 |
| LARP4 (UniProt Q71RC2) | -0.708 | -0.463 | -0.301 |
| LARP4B (UniProt Q92615) | -0.111 | 0.048 | 0.174 |
| LARP7 (UniProt Q4G0J3) | 0.0679 | 0.34 | 0.152 |
| LARS2 (UniProt Q15031) | -0.741 | -0.0508 | 0.0433 |
| LARS (UniProt Q9P2J5) | 0.86 | -0.63 | 0.0502 |
| LAS1L (UniProt Q9Y4W2) | -0.116 | -0.0675 | -0.132 |
| LASP1 (UniProt Q14847) | -0.178 | 0.387 | 0.383 |
| LATS1 (UniProt O95835) | -0.0262 | -0.183 | -0.189 |
| LBR (UniProt Q14739) | 0.0853 | -0.0763 | -0.097 |

| Target | thermal stability z-score (potassium arsenate) | thermal stability z-score (lipoamide; [1]) | thermal stability z-score (lipoamide; arsenate co-treatment: none) |
| --- | --- | --- | --- |
| LCLAT1 (UniProt Q6UWP7) | -2.38 | 1.1 | 0.0592 |
| LCMT1 (UniProt Q9UIC8) | -0.0988 | 0.437 | 0.614 |
| LCMT2 (UniProt O60294) | -0.332 | -0.107 | -0.78 |
| LDAH (UniProt Q9H6V9) | 0.0377 | -0.0856 | -0.00844 |
| LDB1 (UniProt Q86U70) | -0.783 | 0.244 | 1.15 |
| LDHA (UniProt P00338) | -0.436 | 0.685 | 0.577 |
| LDHB (UniProt P07195) | 0.13 | 0.679 | 0.658 |
| LDLR (UniProt P01130) | -0.0946 | 0.0821 | -0.206 |
| LEMD2 (UniProt Q8NC56) | -0.503 | -1.14 | -1.41 |
| LEMD3 (UniProt Q9Y2U8) | -0.685 | 0.161 | 0.209 |
| LENG1 (UniProt Q96BZ8) | 0.544 | 0.493 | 0.509 |
| LENG9 (UniProt Q96B70) | -0.307 | -0.216 | -0.193 |
| LEO1 (UniProt Q8WVC0) | 0.239 | 1.13 | 0.765 |
| LETM1 (UniProt O95202) | 0.0137 | 0.0577 | 0.374 |
| LETMD1 (UniProt Q6P1Q0) | 0.0642 | 0.197 | -0.0626 |
| LGALS1 (UniProt P09382) | -0.756 | 0.596 | 0.255 |
| LGALS3 (UniProt P17931) | -0.377 | 0.762 | 0.918 |
| LGALS3BP (UniProt Q08380) | 0.946 | -2.58 | -2.13 |
| LGALSL (UniProt Q3ZCW2) | 0.19 | 0.209 | 0.257 |
| LGMN (UniProt Q99538) | -0.193 | -0.232 | -0.461 |
| LHPP (UniProt Q9H008) | 0.146 | 1.03 | 0.991 |
| LIAS (UniProt O43766) | -2.31 | 1.93 | 3.09 |
| LIFR (UniProt P42702) | -0.287 | -1.35 | -0.675 |
| LIG1 (UniProt P18858) | 0.24 | -0.166 | 0.00122 |

| Target | thermal stability z-score (potassium arsenate) | thermal stability z-score (lipoamide; [1]) | thermal stability z-score (lipoamide; arsenate co-treatment: none) |
| --- | --- | --- | --- |
| LIG3 (UniProt P49916) | -1.05 | -0.0256 | 0.0387 |
| LIG4 (UniProt P49917) | -0.107 | -0.146 | 0.0757 |
| LIMA1 (UniProt Q9UHB6) | -1 | -0.552 | -0.44 |
| LIMCH1 (UniProt Q9UPQ0) | 0.542 | 0.0623 | 0.151 |
| LIMD1 (UniProt Q9UGP4) | -5.26 | -1.08 | -0.705 |
| LIMS1 (UniProt P48059) | -2.08 | -0.604 | -0.589 |
| LIN7C (UniProt Q9NUP9) | 0.379 | 0.138 | 0.419 |
| LIN9 (UniProt Q5TKA1) | -0.121 | -0.0678 | -0.263 |
| LIN54 (UniProt Q6MZP7) | 0.0147 | 0.0767 | -0.0219 |
| LIPA (UniProt P38571) | 0.119 | -0.674 | -0.352 |
| LIX1L (UniProt Q8IVB5) | -0.301 | -0.241 | -0.219 |
| LLGL1 (UniProt Q15334) | -0.755 | -0.455 | -0.324 |
| LLGL2 (UniProt Q6P1M3) | -0.318 | -0.179 | -0.122 |
| LLPH (UniProt Q9BRT6) | -2.48 | -1.21 | -1.15 |
| LMAN1 (UniProt P49257) | 0.757 | -3.38 | -2.78 |
| LMAN2 (UniProt Q12907) | 0.284 | -1.93 | -1.77 |
| LMAN2L (UniProt Q9H0V9) | 0.373 | -2.57 | -1.5 |
| LMBRD1 (UniProt Q9NUN5) | 0.252 | -0.626 | -0.635 |
| LMBRD2 (UniProt Q68DH5) | -0.111 | -0.904 | -0.0118 |
| LMF2 (UniProt Q9BU23) | 0.316 | -0.972 | -0.61 |
| LMNA (UniProt P02545) | -0.488 | 0.567 | 0.493 |
| LMNB1 (UniProt P20700) | 0.742 | 2.11 | -0.38 |
| LMNB2 (UniProt Q03252) | 0.839 | 0.686 | 0.0237 |
